# Results: patent US12655116B2, “Substituted isophthalic acid diamides” (Bayer Aktiengesellschaft, priority 2020, dated 2026)
# Experiments:
# VIOTR [1] = test: Pre-emergence herbicidal action against VIOTR; format: in vivo, Viola tricolor
# Method in brief: (§1)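 Seeds sown in sandy loam, soil-covered; compound sprayed on soil surface pre-emergence. Application: WP/EC, 600–800 l/ha, 0.2% wetting agent. Readout: visual % damage at 3 weeks.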
# ECHCG [2] = test: Post-emergence herbicidal action against ECHCG; format: in vivo, Echinochloa crus-galli
# Method in brief: (§2)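 Percent herbicidal action is rated by eye about 3 weeks after treatment against untreated controls, where 100% means dead plants and 0% means like controls. Plants in sandy loam are sprayed on green parts at the one-leaf stage with aqueous WP or EC preparations at 600 to 800 l/ha plus 0.2% wetting agent.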
# VIOTR [3] = test: Post-emergence herbicidal action against VIOTR; format: in vivo, Viola tricolor; settings: 20 g/ha
# Method in brief: as §2
# SETVI [4] = test: Pre-emergence herbicidal action against SETVI; format: in vivo, Setaria viridis
# Method in brief: as §1
# DIGSA [5] = test: Post-emergence herbicidal action against DIGSA; format: in vivo, Digitaria sanguinalis; settings: 20 g/ha
# Method in brief: as §2
# ABUTH [6] = test: Pre-emergence herbicidal action against ABUTH; format: in vivo, Abutilon theophrasti; settings: for Pre-emergence action against ABUTH (herbicidal activity): 80 g/ha, scored visually after 3 weeks vs untreated controls (100% = plants have died, 0% = like control plants)
# Method in brief: as §1
# AMARE [7] = test: Pre-emergence herbicidal action against AMARE; format: in vivo, Amaranthus retroflexus
# Method in brief: as §1
# AMARE [8] = test: Post-emergence herbicidal action against AMARE; format: in vivo, Amaranthus retroflexus; settings: 20 g/ha, visual assessment about 3 weeks after treatment, 100% = plants have died, 0% = like control plants
# Method in brief: as §2
# MATIN = test: Pre-emergence herbicidal action against MATIN; format: in vivo, Matricaria inodora
# Method in brief: as §1
# SETVI [9] = test: Post-emergence herbicidal action against SETVI; format: in vivo, Setaria viridis; settings: dosage 20 g/ha
# Method in brief: as §2
# ALOMY [10] = test: Post-emergence herbicidal action against ALOMY; format: in vivo, Alopecurus myosuroides; settings: dosage 20 g/ha, visual assessment about 3 weeks after treatment vs untreated controls
# Method in brief: as §2
# DIGSA [11] = test: Pre-emergence herbicidal action against DIGSA; format: in vivo, Digitaria sanguinalis
# Method in brief: as §1
# ABUTH [12] = test: Post-emergence herbicidal action against ABUTH; format: in vivo, Abutilon theophrasti; settings: visual assessment about 3 weeks after treatment vs untreated controls
# Method in brief: as §2
# ALOMY [13] = test: Pre-emergence herbicidal action against ALOMY; format: in vivo, Alopecurus myosuroides; settings: 80 g/ha, pre-emergence, scored visually after 3 weeks vs untreated controls (100% = plants have died, 0% = like control plants)
# Method in brief: as §1
# POLCO = test: Pre-emergence herbicidal action against POLCO; format: in vivo, Polygonum convolvulus; settings: dosage 80 g/ha
# Description: Seeds of monocotyledonous and dicotyledonous weed plants and crop plants are laid out in sandy loam soil in wood-fiber pots and covered with soil. The compounds of the invention, formulated in the form of wettable powders (WP) or as emulsion concentrates (EC), are then applied to the surface of the covering soil in the form of an aqueous suspension or emulsion at a water application rate equivalent to 600 to 800 l/ha, with addition of 0.2% wetting agent. After the treatment, the pots are placed in a greenhouse and kept under good growth conditions for the trial plants. The damage to the test plants is scored visually after a test period of 3 weeks by comparison with untreated controls (herbicidal activity in percent (%): 100% activity=the plants have died, 0% activity=like control plants). […] The tables below illustrate, in an illustrative manner, the post-emergence herbicidal action of the compounds of the invention, the herbicidal activity being stated in percent.
# ECHCG [14] = test: Pre-emergence herbicidal action against ECHCG; format: in vivo, Echinochloa crus-galli; settings: 80 g/ha
# Method in brief: as §1
# AVEFA = test: Pre-emergence herbicidal action against AVEFA; format: in vivo, Avena fatua; settings: 80 g/ha, pre-emergence
# Method in brief: as §1
# VERPE = test: Pre-emergence herbicidal action against VERPE; format: in vivo, Veronica persica; settings: dosage 80 g/ha
# Method in brief: as §1
# [15] = 20 g/ha, scored visually after 3 weeks vs untreated controls, 100% = plants have died, 0% = like control plants
# [16] = 80 g/ha, scored visually after 3 weeks vs untreated controls (100% = plants have died, 0% = like control plants)
SMILES,Pre-emergence action against VIOTR in % (VIOTR [1]; dosage 80 g/ha) [%],Post-emergence action against ECHCG in % (ECHCG [2]; dosage 5 g/ha) [%],Post-emergence action against ECHCG in % (ECHCG [2]; dosage 20 g/ha) [%],Pre-emergence action against SETVI in % (SETVI [4]; dosage 80 g/ha) [%],Pre-emergence action against ABUTH (herbicidal activity) (ABUTH [6]) [%],Pre-emergence action against AMARE in % (AMARE [7]; [15]) [%],Pre-emergence action against AMARE in % (AMARE [7]; [16]) [%],Post-emergence action at 20 g/ha against AMARE in % (AMARE [8]) [%],Pre-emergence action against MATIN in % (MATIN; dosage 80 g/ha) [%],Post-emergence action against SETVI in % (SETVI [9]) [%],Pre-emergence action against DIGSA in % (DIGSA [11]; dosage 20 g/ha) [%],Pre-emergence action against DIGSA in % (DIGSA [11]; dosage 80 g/ha) [%],Post-emergence action against ABUTH in % (ABUTH [12]; dosage 20 g/ha) [%],Pre-emergence action against ALOMY (herbicidal activity) (ALOMY [13]) [%],Pre-emergence action against POLCO in % (POLCO) [%],Pre-emergence action against ECHCG in % (ECHCG [14]) [%],other results
CCNC(=O)c1c(C(F)F)ccc(C(=O)Nc2nnc(C)o2)c1Br [Example 6-165],90,90,100,100,100,100,100,80,100,80,90,100,90,80,80,100,Pre-emergence action against VIOTR in % (VIOTR [1]; dosage 20 g/ha): 80%; Post-emergence action against VIOTR in % (VIOTR [3]): 80%; Pre-emergence action against SETVI in % (SETVI [4]; dosage 20 g/ha): 90%; Post-emergence action against DIGSA (DIGSA [5]): 90%; Pre-emergence action against MATIN in % (MATIN; dosage 20 g/ha): 80%; Post-emergence action against ALOMY in % (ALOMY [10]): 80%
Cc1nnc(NC(=O)c2ccc(C(F)F)c(C(=O)NC3CC3)c2Br)o1 [Example 6-166],100,80,90,100,100,90,100,90,100,100,80,100,80,,80,80,
Cc1nnc(NC(=O)c2ccc(C(F)F)c(C(=O)NCC(F)F)c2Br)o1 [Example 6-169],,80,90,100,90,90,100,90,80,90,,90,,,100,90,
CCNC(=O)c1c(C(F)(F)F)ccc(C(=O)Nc2nnc(C)o2)c1CC [Example 6-211],80,,90,100,100,100,100,90,90,,,,90,90,90,100,"Pre-emergence action against AVEFA in % (AVEFA): 80%; Pre-emergence action against ABUTH (herbicidal activity in percent) (ABUTH [6]; dosage 20 g/ha, scored visually after 3 weeks vs untreated controls, 100% = plants have died, 0% = like control plants): 90%; Pre-emergence action against VERPE in % (VERPE): 80%; Post-emergence action against ABUTH in % (ABUTH [12]; dosage 5 g/ha): 80%"
